Measured values from patent publication EP3354264A1, “PROPHYLAXIS AND TREATMENT OF NEISSERIA GONORRHOEAE EYE INFECTION” (Kingston University Higher Education Corporation, priority 2017, dated 2018).
Values after ≈ are worked out from the molar mass of the structure shown. Values joined by “and” are separate entries in the source; they are usually repeats but may differ in a detail not shown here. Identical values can stand only once. Like-named read-outs stand apart in the source and are kept apart here.

Assays:
[1] = test system: panel of nine N. gonorrhoeae isolates (strain NCCP11945 and eight isolates from Public Health England); assay: Minimum bactericidal concentration by log reduction, panel of isolates; format: cell-based; conditions: Neisseria gonorrhoeae, 2 min, read-out: Minimum bactericidal concentration
Procedure: (§1) The well characterised N. gonorrhoeae strain NCCP11945 (Chung GT et al. (2008) Complete genome sequence of Neisseria gonorrhoeae NCCP11945. Journal of Bacteriology 190: 6035-6036) was used in the screening stage of this experiment. Eight isolates that were obtained from Public Health England from various European locations were used in the log reduction assays. All isolates were first cultured for 24 hours prior to testing by plating on GC solid medium (Oxoid Limited, Hampshire, UK) with Kellogg supplements and incubating at 37 °C, 5% CO2 (Kellogg DS, Jr., et al., (1963), J Bacteriol 85: 1274-1279).
(§2) Log reductions were done using the same method as in Bergsson et al., (1999), Antimicrob Agents Chemother 43: 2790-2792. Briefly, cells were suspended in GC broth (18 g/L GC Base (Oxiod, Limited) with added defined supplements) to an optical density of 0.3 at 520 nm which is approximately equivalent to 107 - 108 cells per millilitre (Macfarlane DE et al. (1980) Improved media for the culture of Neisseria gonorrhoeae. J Med Microbiol 13: 597-607). Five hundred microliters of the suspension was then added to 5 µl of the 100 mM stocks to give a final concentration of 1 mM. A negative control was also done to calculate the reduction in bacterial titre by adding 500 µl to 5 µl ethanol. The tubes were then mixed at room temperature for two minutes and immediately diluted in a 10 fold dilution series down to 10-4. The dilutions were plated by spreading 10 µl on a quarter of a plate and 100 µl of the neat solution was also plated. Plates were incubated at 37 °C for 48 hours. All samples were plated in duplicate. A reduction in viable cell count by more than 4 log10 was deemed to be bactericidal and was selected for further investigation. Bactericidal compounds were then tested at concentrations of 0.75, 0.5, and 0.25 mM (0.125 mM was also used in some potent compounds) to find the minimum bactericidal concentration. Additional testing at lower concentrations was also done on the eight clinical isolates of European origin.
As shown by the results in Table 3 which presents data on the log reductions of bacterial cell counts, against a panel of nine N. gonorrhoeae isolates (strain NCCP11945 and eight isolates from Public Health England), myristoleic acid (C14:1cΔ9), palmitoleic acid (C16:1cΔ9), linolenic acid (C18:3cΔ9,12,15), and monocaprin (C10) have a minimal bactericidal concentration, defined as the lowest concentration tested to give an average 4 log10 reduction in bacterial count after a two minute exposure, of 0.5 mM. Against a panel of nine N. gonorrhoeae isolates, lauric acid (C12:0), tridecanoic acid (C13:0), and sodium dodecanoate have a minimal bactericidal concentration of 0.75 mM.

[2] = test system: Neisseria gonorrhoeae strain NCCP11945; assay: Log reduction in artificial tear fluid; format: cell-based; conditions: two minute exposure
Procedure: Artificial tear fluid was made as in Mirejovsky et al., Optometry and Vision Science, (1991), 68: 858-864. […] Neisseria gonorrhoeae strain NCCP11945 was used in these experiments. As the previous log reductions, […] were suspended in GC broth. The cell suspension was centrifuged to remove the culture medium and the bacteria resuspended in the tear fluid. This was then added to the concentrated organic acid candidates. The cells were then counted again after two minute exposure to estimate any reduction due to the exposure to the fatty acid.
In a first experiment, the artificial tear fluid formulation includes calcium chloride to mimic the calcium in natural tears. As shown by the results in Figure 8, the anti-gonococcal properties of myristoleic acid (C14:1cΔ9), palmitoleic acid (C16:1cΔ9), linolenic acid (C18:3cΔ9,12,15), and monocaprin(C10) are retained in the artificial tear fluid formulation containing calcium chloride.
In a second experiment, calcium chloride was omitted from the artificial tear fluid formulation. The results in Figure 9 indicate that the anti-gonococcal properties of lauric acid (C12:0), tridecanoic acid (C13:0), and sodium dodecanoate were retained in the artificial tear fluid formulation without.

[3] = test system: Neisseria gonorrhoeae strain NCCP11945; assay: Growth inhibition screen of organic acids; format: cell-based; conditions: strain NCCP11945, in vitro, 1 mM
Procedure: as §1
(§3) A full list of all the organic acids tested in this study is in Table 1. The tested compounds include saturated and unsaturated fatty acids, monoglycerides, dicarboxylic acids, and fatty acid sodium salts. All compounds investigated were resuspended at a concentration of 100 mM in ethanol unless stated. All chemicals were obtained from Sigma-Aldrich (Poole, Dorset, UK).
Other organic acids were also active at this concentration, as noted in Table 1.

[4] = in vitro; format: cell-based, bovine; conditions: red blood cells
Procedure: (§4) Whole bovine blood was obtained from a local slaughter house (ABP, Guildford, Surrey, UK), adding 90 ml blood to 10 ml of 110 mM tri-sodium citrate anticoagulant. RBCs were isolated the same day. The RBCs were washed by three repeats of centrifugation (1,500 x g for 10 minutes) and resuspension in PBSG. Testing was done following European Union Reference Laboratory for alternatives to animal testing (EURL-ECVAM) guidelines (Lewis RW (2010) DB-ALM Protocol No. 99: Red blood cell (RBC) Test System. EURL ECVAM). The organic acids were made up in DMSO and diluted to a DMSO concentration maximum of 10 % (v/v). Samples were shaken at room temperature for 1 hour and then centrifuged at 10,000 rpm for 2 minutes. An aliquot of 750 µl of the supernatant was taken and absorbance at […] tested.

[5] = test system: RBCs; assay: in vitro; format: cell-based, bovine
Procedure: as §4

[6] = test system: Neisseria gonorrhoeae strain NCCP11945; assay: Measurement of bactericidal action (log reduction); format: cell-based; conditions: for log reduction at 1000 µM: Neisseria gonorrhoeae
Procedure: as §1, §3, §2

[7] = test system: Chorioallantoic Membrane; conditions: organic acids 1 mg/ml, sodium hydroxide 0.1M; for Total Score: number
Procedure: The HET-CAM was performed according to Alany et al., (2006), J Control Release 111: 145-152. Fertilised white leghorn eggs were purchased from Henry Stewart & Co. Ltd (Fakenham, Norfolk, UK) and delivered to Kingston University. All eggs were checked for damage and incubated at 37°C with 60-70 % relative humidity. At day 4 the eggs were removed from their shells and placed in incubation chambers. At day 9, the CAMs were tested. This was done by applying 200 µl of the testing material and recording results at 30, 120, and 300 seconds. At each of these time-points the effect of the substance on the CAM was evaluated by assessing them against the scoring system (Vanerp YHM, et al., (1990), Toxicology in Vitro 4: 267-269).

[8] = test system: Bovine eyes; conditions: test compounds 1 mM in saline, controls as labelled, exposure 30 seconds
Procedure: Bovine eyes were collected from a local slaughter house (ABP, Guildford, Surrey, UK) and were transported in cold saline for testing at the laboratory. Each eye was first examined for signs of damage before use. The test was conducted according to Abdelkader et al., (2012), Int J Pharm 432: 1-10. The exposure time of the test substances was 30 seconds. The selected bactericidal compounds were tested at a concentration of 1 mM in saline. Overall, the concentration of ethanol carry-over from the stock of the organic acids was therefore 1 %. […] The test area of the cornea was then washed with 10 ml saline.
Corneal damage to the test area was assessed by fluorescein staining and examined under a cobalt blue filter. […] Each of the seven candidates were tested in triplicate, each test was performed on a separate day from a different batch of eye balls. Corneal histology was done as Abdelkader et al., (2012), Int J Pharm 432: 1-10 by evaluating the damage to the epithelial layer and stroma of the cornea after Haematoxylin and Eosin staining.

[9] = lowest concentration tested giving an average 4 log10 reduction after two minute exposure, nine isolates
[10] = bovine RBCs, shaken 1 hour at room temperature, read-out: H50
[11] = bovine RBCs, shaken 1 hour at room temperature, read-out: H50 (mg/L)
[12] = at their minimum bactericidal concentration
[13] = 2 min, strain NCCP11945, 1 mM, 2 minutes, read-out: Log reduction of Neisseria gonorrhoeae
[14] = strain NCCP11945, 1 mM, 2 minutes
[15] = artificial tear fluid without calcium chloride, Figure 9
[16] = NCCP11945, 2 min, read-out: Log reduction of Neisseria gonorrhoeae, strain NCCP11945, 1 mM, 2 minutes

| Structure (SMILES) | MBC [1, 9] [µM] | Inhibits growth of Neisseria gonorrhoeae [3] | HC50 at 1 h [4, 10] [mM] | HC50 at 1 h [4, 11] [mg/L] | RBC lysis assay prediction of irritation [5, 12] | log reduction at 1000 µM [6, 13] | Log reduction of Neisseria gonorrhoeae [6, 14] | Total Score [7] | MBC [1] [µM] | anti-gonococcal properties in artificial tear fluid [2, 15] | log reduction at 1000 µM [6, 16] | RBC lysis assay prediction of irritation [5] | further results |
| --- | --- | --- | --- | --- | --- | --- | --- | --- | --- | --- | --- | --- | --- |
| CCCC/C=C\CCCCCCCC(=O)O [Myristoleic acid 14:1 cΔ9, (Z)-tetradec-9-enoic acid] | 500 (≈ 113 µg/mL) | Yes | 2.6 to 3.5 | 600 to 800 | not irritating | > 6 | able to cause a log reduction |  |  |  |  |  | anti-gonococcal properties in artificial tear fluid ([2]; artificial tear fluid containing calcium chloride, Figure 8): retained; Inhibits growth of Neisseria gonorrhoeae ([3]; listed as myristoleic acid): able to inhibit growth |
| CC(C)=O [Acetone, reference compound] |  |  |  |  |  |  |  | 14 |  |  |  |  | Total Score (irritation grade in words) [7]: Severe; BCOP classification [8]: Strong irritant |
| CCCCCCCCCCCC(=O)O [Lauric acid 12:0, dodecanoic acid] |  | Yes | 1 to 2 | 200 to 400 | not irritating |  | able to cause a log reduction | 0 | 750 (≈ 150 µg/mL) | retained | > 6 |  | Total Score (irritation grade in words) ([7]; listed as Lauric acid): None; BCOP classification ([8]; listed as Lauric acid): Non-irritant; BCOP classification ([8]; listed as lauric acid): will not cause irritation; Inhibits growth of Neisseria gonorrhoeae ([3]; listed as lauric acid): able to inhibit growth |
| CCCCCCCCCCCC(=O)[O-].[Na+] [Sodium dodecanoate] |  | Yes |  |  |  |  | able to cause a log reduction |  | 750 | retained | > 6 | not irritating | Inhibits growth of Neisseria gonorrhoeae ([3]; listed as sodium dodecanoate): able to inhibit growth; HC50 at 1 h ([4]; bovine): 200 µg/mL to 400 µg/mL and 900 µM to 1.8 mM |
| CCCCCCCCCCCCC(=O)O [Tridecanoic acid 13:0, Tridecanoic acid] | 750 (≈ 161 µg/mL) | Yes | > 4.67 | > 1000 |  | > 6 | able to cause a log reduction |  |  | retained |  | not irritating | Inhibits growth of Neisseria gonorrhoeae ([3]; listed as tridecanoic acid): able to inhibit growth |
